Measured values published in patent publication US5807880A, “Azole derivative and pharmaceutical composition thereof” (Yamanouchi Pharmaceutical Co., Ltd., priority 1993, dated 1998).
pIC50: −log10 of the molar value. Counter-ions that a name gives are not always drawn.

Experiments:
[1] = target: T1, rat steroid 17-20 lyase (Rattus norvegicus, UniProt P11715); assay: Measurement of rat steroid 17-20 lyase inhibiting activity (rat testicular microsomes); assay type: biochemical, rat (male Wistar); settings: 1 μM [1,2-3H]-17α-hydroxyprogesterone, NADPH, pH 7.4, 37° C., 60 minutes, read-out: Concentration of drug to inhibit 50% of steroid 17-20 lyase activity (IC50)
T1 construct: A testis was excised from a ten-week-old male Wistar rat, homogenized and then centrifuged to obtain microsomes; from tissue; host or cells: testicular microsomes of ten-week-old male Wistar rats
T1 sequence (P11715 1-507): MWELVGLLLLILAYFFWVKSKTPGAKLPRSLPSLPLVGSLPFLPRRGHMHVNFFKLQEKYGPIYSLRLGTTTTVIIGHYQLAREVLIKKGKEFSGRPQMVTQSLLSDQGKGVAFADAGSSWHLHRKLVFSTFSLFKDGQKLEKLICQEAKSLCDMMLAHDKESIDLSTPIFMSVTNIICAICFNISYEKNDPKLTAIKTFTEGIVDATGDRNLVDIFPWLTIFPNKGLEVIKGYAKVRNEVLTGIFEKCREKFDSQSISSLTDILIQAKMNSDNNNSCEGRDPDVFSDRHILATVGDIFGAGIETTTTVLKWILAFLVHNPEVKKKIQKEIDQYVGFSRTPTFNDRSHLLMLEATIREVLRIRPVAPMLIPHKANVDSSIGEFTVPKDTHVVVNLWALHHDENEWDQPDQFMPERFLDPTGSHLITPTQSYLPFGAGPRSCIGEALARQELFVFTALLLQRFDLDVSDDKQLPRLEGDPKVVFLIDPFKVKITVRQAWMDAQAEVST
Description: (1) Measurement of rat steroid 17-20 lyase inhibiting activity
Carried out in accordance with the procedure described in J. Steroid Biochem., Vol.33, No.6, 1191-1195 (1989).
A testis was excised from a ten-week-old male Wistar rat, homogenized and then centrifuged to obtain microsomes. A 50 μg portion of the microsomal protein, 1 μM of [1,2-^3 H]-17α-hydroxyprogesterone (5.55×10^5 dpm) and a test compound were dissolved in 100 μl of 50 mM phosphate buffer (pH 7.4), and the solution was mixed with NADPH solution and incubated at 37° C. for 60 minutes. This was mixed with 400 μl of a mixed solvent of methanol and tetrahydrofuran (2:3) and subjected to centrifugation, and radioactivities of the substrate and products (androstenedione and testosterone) in the resulting supernatant fluid were measured using a high performance liquid chromatography (HPLC) equipped with a radioactive isotope detector to examine activity of the test compound to inhibit steroid 17-20 lyase.
The steroid 17-20 lyase inhibiting activity in rat testicular microsomes was calculated as IC50 value by the method described in the above test method (1), with the results shown in Table 1.

[2] = test system: testosterone synthesis; assay: Measurement of in vivo rat testosterone synthesis inhibiting activity (LH-RH stimulated); settings: 1 mg/kg, oral, fasted male Wistar rats; LH-RH 60 ng/rat i.m. 1 h after drug, blood 1 h thereafter; serum testosterone
Description: (2) Measurement of in vivo rat testosterone synthesis inhibiting activity
Carried out in accordance with the procedure described in J. Steroid Biochem., Vol.32, No.6, 781-788 (1989).
Each test drug was orally administered to ten-week-old male Wistar rats under fasting. One hour after the drug administration, LH-RH (60 ng/rat) was administered by intramuscular injection to accelerate testosterone synthesis. One hour thereafter, blood was collected by decapitation, and concentration of testosterone in the thus obtained serum was measured by a radioactive isotope assay to calculate testosterone synthesis inhibiting activity.
The in vivo activity to inhibit synthesis of testosterone in rats measured by the above test method (2) was expressed as a testosterone synthesis inhibition ratio (%) to the control group when each test compound or a control compound was administered in a dose of 1 or 10 mg/kg (Table 2).

| SMILES | pIC50 [1] | Testosterone synthesis inhibition ratio (to the control group) [2] [%] |
| --- | --- | --- |
| CC(c1ccc2c(c1)Cc1ccccc1-2)n1ccnc1 (stereo not shown) [Example 2, 1-[1-(9H-fluoren-2-yl)ethyl]-1H-imidazole hydrochloride] | 8.40 | 86.3 |
| CC(C)(c1ccc2c(c1)Cc1ccccc1-2)n1ccnc1 [Example 4, 1-[1-(9H-fluoren-2-yl)-1-methylethyl]-1H-imidazole] | 8.30 | – |
| c1ccc2c(c1)Cc1cc(Cn3ccnc3)ccc1-2 [Example 7, 1-[(9H-Fluoren-2-yl)methyl]-1H-imidazole] | – | 78.4 |
| CC(c1ccc2c(c1)sc1ccccc12)n1ccnc1 (stereo not shown) [Example 8, 1-[1-(Dibenzothiophen-3-yl)ethyl]-1H-imidazole] | 8.24 | 73.0 |
| CC(c1ccc2c(c1)Nc1ccccc1S2)n1ccnc1 (stereo not shown) [Example 10, 2-[1-(1H-Imidazo1-1-yl)ethyl]phenothiazine monooxalate] | 8.16 | – |
